Source: EP2114888B1, “TRICYCLIC COMPOUNDS AND THEIR USE AS GLUCOCORTICOID RECEPTOR MODULATORS” (priority 2007, dated 2008)

Columns and labels:
TNFα = experiment: Ex vivo LPS-stimulated human whole blood, TNFα production; type: cell-based; conditions: mean values
Description: Venous blood from human donors was collected as 10 ml aliquots in tubes containing sodium heparin (BD Vacutainer from Becton Dickinson and Company, Franklin Lakes, NY). Blood was added to sterile polystyrene round bottom 96-well tissue culture plates (Corning Costar) at 100 µl/well, omitting the outside wells. Media (RPMI Medium 1640 with L-glutamine, Invitrogen Corporation, Carlsbad, CA) was added to the blood in 90 µl aliquots for a total volume of 190 µl. Outside wells were filled with 200 µl of media. Blood was placed in a humidified 37°C incubator with 5% CO2 while compounds were prepared (nearly 60 minutes).
Compounds were prepared from 10 mM stock solutions in dimethylsulfoxide (DMSO, Sigma-Aldrich). […] Final DMSO and ethanol concentrations in the assay were 0.1 % and 1.5%. The samples were gently triturated twice to mix and replaced in the incubator. LPS stock (E. coli serotype 0111:B4, Sigma-Aldrich), stored in aliquots of 100 µg/ml in RPMI at -20°C, was diluted 1/50 in RPMI to make a working stock solution. After 60 minutes of incubation, 10 µl of the prepared LPS working stock was added to the blood to a final concentration of 100 ng/ml, omitting wells to be used as negative control. The samples were again gently triturated and the plates incubated overnight for 22 hours. Following incubation, the blood was centrifuged at 1500 x g for 5 minutes and the plasma removed to either freeze at -20°C or assay for cytokine release.
IL-1β, IFNγ,IL-6, and TNFα protein levels were measured using Meso Scale assay kits (Meso Scale Discovery, Gaithersburg, MD). Reagents were allowed to come to room temperature. Meso Scale plates were blocked with 30 µl of human plasma/serum assay diluent with gentle shaking for 60 minutes at room temperature. Plates were washed 3x with wash buffer (PBS, Invitrogen Corporation, with 0.05% Tween-20, Sigma-Aldrich). Calibrators for standard curves were prepared in human plasma/serum assay diluent as a 1/5 serial dilution to achieve final concentrations ranging from 50000 pg/ml to 3.2 pg/ml. Samples and calibrators were added at 20 µl/well, then incubated at room temperature with gentle shaking for 90 minutes. Plates were again washed 3 times with wash buffer. Detection antibody was diluted in human plasma/serum antibody diluent to 1 µg/ml and added to the plate at 20 µl/well. Plates were incubated as before for 60 minutes and washed again. Read Buffer T (4x) was diluted 1:1 with mqH2O to 2 times concentration and 150 µl added to each well. Plates were analyzed on the SECTOR Imager 6000 (Meso Scale Discovery) to generate raw signal values.
Individual values were compared to positive and negative controls (vehicle treated blood with LPS and vehicle treated blood without LPS, respectively) to generate % inhibition. Triplicate values were averaged for each donor. The values for two donors were averaged (only one donor was used for IL-1β) and graphed using 4-parameter fit curves in the GraFit 5.0.11 application.

[1] = mouse, in vivo
Description: Due to blood volume sampling limitations in mice, AUC(0-4 hr) values were used to make pharmacodynamic comparisons.

[2] = system: Mouse Collagen-induced arthritis (mCIA); experiment: Traditional mouse collagen-induced arthritis (mCIA) model; type: in vivo, male DBA/J mice; conditions: mice
Description: Mouse Collagen-induced arthritis is a commonly used chronic, preclinical model of rheumatoid arthritis in which joint swelling and bone destruction occur following immunization with type II collagen. Reduction of disease incidence and severity has been shown previously to be predictive of disease-modification and signs and symptoms mitigation, respectively, in a clinical setting.
In the traditional mCIA model, male DBA/J mice were immunized with 50 µg chick type II collagen (cCII) in complete Freund's adjuvant and then boosted 21 days later with 50 µg cCII in incomplete Freund's adjuvant. Treatment with compounds was initiated on the morning of the boost and continued for 56 days. The effectiveness of treatment was measured by disease incidence (i.e., number of mice showing any sign of disease) and disease severity, both of which were measured twice a week.

osteocalcin = experiment: Serum osteocalcin suppression, 28-day repeat dose mouse model; conditions: in vivo
Description: (§1) The compounds were weighed and suspended in a vehicle of 0.5% methylcellulose/0.025% tween 20 (Sigma-Aldrich, St. Louis, MO). Compound suspensions were homogenized using a Polytron PT-3100 tissue homogenizer to create a very fine suspension and were then sonicated for 10 minutes using a water bath sonicator. Aliquots of each suspension were made for daily dosing at 0.2 ml/dose. Swiss Webster female mice, 10-12 weeks old, 28-29 grams, (Taconic, Germantown, NY) were used in accordance with the guidelines of the Institutional Animal Care and Use Committee and in accordance with NIH guidelines on laboratory animal welfare. Mice were acclimated in the Pfizer animal facility for three to seven days prior to being utilized in a study. […] Each treatment group contained 5-10 mice. To establish a dosing regimen for the studies, a pilot pharmacodynamic time course experiment was conducted to quantify TNFα repression after a single ED80 dose.
(§2) Body weights were measured on the first and last day of each experiment. Blood samples were obtained after three weeks of dosing for a steady-state pharmacokinetic (PK) analysis. To assess compound effects on LPS-induced TNFα, all mice received an intraperitoneal injection of LPS (Salmonella typhosa, L-7895; Sigma-Aldrich, St. Louis,) 2.5 hr after the last dose on day 28. Mice were sacrificed 90 minutes after LPS administration. Serum samples were quantified for osteocalcin and TNFα using the multiplex assays (Linco Research, Inc, St. Charles, MO; Luminex 100, Austin, TX). Samples were diluted 1:20 and the assay was run according to manufacturer's instructions. The osteocalcin standard was purchased separately (Biomedical Technologies Inc., Stoughton, MA). Mice were fasted for 4 hours before serum was collected for TNFα, and osteocalcin levels. For each experiment, outliers were detected by calculating the number of standard deviations from the mean of the group. If the value being examined was more than 2.5 standard deviations from the mean, it was excluded from the rest of the calculations.
(§3) The individual mouse percent inhibition values were fit to a four-parameter logistic model using the dose mean for each group.
(§4) ED50 and ED80 values were obtained for the various endpoints using a four-parameter logistic fit. For compounds which were tested multiple times, ED50 and ED80 values were obtained using four-parameter logistic fits of the combined data from multiple experiments.

[3] = as above; conditions: in vivo, po
Description: as §1, §2, §3, §4

[4] = Oral absorption profile in rats

SMILES: Cc1ncccc1NC(=O)c1ccc2c(c1)CC[C@@H]1C[C@@](O)(C(F)(F)F)CC[C@@]21Cc1ccccc1 [Example 1, (4βS,7R,8αR)-4β-benzyl-7-hydroxy-N-(2-methylpyridin-3-yl)-7-(trifluoromethyl)-4β,5,6,7,8,8α,9,10-octahydrophenanthrene-2-carboxamide]
- inhibition at 0.000457247 µM (TNFα; 0.457247 nM): 8.96%
- inhibition at 0.00137174 µM (TNFα; 1.371742 nM): 7.87%
- inhibition at 0.00411523 µM (TNFα; 4.115226 nM): -1.31%
- inhibition at 0.0123457 µM (TNFα; 12.34568 nM): 9.42%
- inhibition at 0.037037 µM (TNFα; 37.03704 nM): 18.7%
- inhibition at 0.111111 µM (TNFα; 111.1111 nM): 27.4%
- inhibition at 0.333333 µM (TNFα; 333.3333 nM): 36%
- inhibition at 1 µM (TNFα; 1000 nM): 38.1%
- AUC(0-4 hr) values as share of the AUC(0-24 hr) values [1]: more than 95%
- Disease incidence (traditional mCIA) EAUC50 (AUC 0-4 hr) [2]: 0.04 µg·h/mL
- Disease incidence (traditional mCIA) EAUC80 (AUC 0-4 hr) [2]: 0.10 µg·h/mL
- Serum osteocalcin EAUC50 (AUC 0-4 hr) (osteocalcin): 1.30 µg·h/mL
- Serum osteocalcin EAUC80 (AUC 0-4 hr) (osteocalcin): 4.20 µg·h/mL
- Osteocalcin Suppression (ED80 dose) (osteocalcin; po): >10 mg/kg
- ED50 [3]: 2.91 mg/kg
- bioavailability F [4]: 17%
- Cmax ([4]; oral): 0.13 µg/mL
